Experimental data from patent US20230058623A1, “NOVEL HETEROARYL-TRIAZOLE COMPOUNDS AS PESTICIDES” (Bayer Aktiengesellschaft, priority 2019, published 2023).

Experiments:
Assay type in all cases: in vivo
[1] = system: larvae of the southern green stink bug (Nezara viridula); assay: Nezara viridula spray test; conditions: 96 h, application rate 100 g/ha, after 4 days, barley plants
Procedure, shortened: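 Barley plants sprayed with the active compound in emulsifier-containing water, then infested with stink bug larvae. Mortality scored in % after 4 days, with 100% meaning all insects killed.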

[2] = system: fall armyworm larvae (Spodoptera frugiperda); assay: Spodoptera frugiperda spray test; conditions: 168 h, application rate 100 g/ha, after 7 days, maize leaf sections
Procedure, shortened: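 Caterpillars are placed on sprayed, dried maize leaf sections. Sprays contain compound diluted in water with emulsifier at 1000 ppm; mortality in % is determined 7 days later.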

[3] = system: adult cat fleas (Ctenocephalides felis); assay: Ctenocephalides felis in-vitro contact test, adult cat flea; conditions: application rate 5 μg/cm^2 (=500 g/ha), after 48 hours, read-out: activity (efficacy: fleas dead or moribund)
Procedure, shortened: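 Acetone solutions of compound were coated onto inner walls of glass tubes (900 ppm giving 5 μg/cm^2) and dried; 5-10 adult C. felis were then held 48 h at room temperature. Efficacy = % fleas dead or moribund, judged by inability to escape a 45-50° C heating plate within 5 min.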

[4] = system: adult unfed cat fleas (Ctenocephalides felis); assay: Ctenocephalides felis oral test; conditions: 48 h, read-out: activity (mortality)
Procedure, shortened: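 About 20 adult unfed cat fleas fed through parafilm on citrated cattle blood containing compound (from a DMSO concentrate). Blood held at 37° C, fleas at room temperature. Mortality in % scored after 2 days.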

[5] = system: Rhipicephalus (Boophilus) microplus larvae (strain Parkhurst, resistant against synthetic pyrethroids); assay: Rhipicephalus (Boophilus) microplus in-vitro contact test, larval cattle tick; conditions: after 48 hours, read-out: activity (efficacy: larvae dead or moribund); for pest or weed control at 1 µg/cm2, 100 g/ha: application rate 1 μg/cm^2 (=100 g/ha); for pest or weed control at 5 µg/cm2, 500 g/ha: application rate 5 μg/cm^2 (=500 g/ha)
Procedure, shortened: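 Acetone solutions were coated onto glass tube walls, giving 5 μg/cm^2 at 900 ppm. Once dry, 20–50 pyrethroid-resistant Parkhurst larvae were added per tube and held 48 h at 27 °C and 85% RH. Efficacy was scored by negative geotaxis as the percentage of dead or moribund larvae.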

[6] = system: adult flies Musca domestica strain WHO-N; assay: Musca domestica test (MUSCDO surface treatment & contact assay); conditions: 24 hours after contact, read-out: efficacy (mortality); for mortality at 4 mg/m2: surface concentration 4 mg/m^2, exposure 30 minutes; for mortality at 20 mg/m2: surface concentration 20 mg/m^2, exposure 30 minutes
Procedure, shortened: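 Compound dissolved at 2 mg/ml in acetone with 2000 ppm RME, applied to glazed tile and dried; adult flies exposed on the surface for 30 min. Percent mortality scored 24 h after contact.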

[7] = system: green peach aphid (Myzus persicae); assay: Myzus persicae spray test; conditions: foliar, 120 h, application rate 100 g/ha, after 5 days, Chinese cabbage leaf disks, read-out: activity (mortality)
Procedure, shortened: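 Chinese cabbage leaf disks infested with all aphid instars were sprayed with compound diluted in water containing emulsifier (1000 ppm). Mortality (%) was scored after 5 days, 100% meaning all aphids killed.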

[8] = system: adult mosquitoes Aedes aegypti strain MONHEIM; assay: Aedes aegypti test (AEDSAE surface treatment & contact assay); conditions: 24 hours after contact, read-out: efficacy (mortality); for mortality at 4 mg/m2: surface concentration 4 mg/m^2, exposure 30 minutes; for mortality at 20 mg/m2: surface concentration 20 mg/m^2, exposure 30 minutes
Procedure, shortened: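 Compound in acetone (2 mg/ml) with 2000 ppm RME dried onto glazed tile; adults exposed to the treated surface for 30 min. Percent mortality scored 24 h after contact.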

Row | Compound | mortality at 100 g/ha [1] | mortality at 100 g/ha [2] | pest or weed control at 5 µg/cm2 [3] | mortality at 100 ppm [4] | pest or weed control at 1 µg/cm2, 100 g/ha [5] | pest or weed control at 5 µg/cm2, 500 g/ha [5] | mortality at 4 mg/m2 [6] | mortality at 20 mg/m2 [6] | mortality at 100 g/ha [7] | mortality at 4 mg/m2 [8] | mortality at 20 mg/m2 [8]
1 | C[C@@H]1CN(C(=O)c2ccc(-n3ncnc3[C@H](C)NC(=O)c3cc(C(F)(F)F)cc(C(F)(F)F)c3)nc2)C[C@H](C)O1 [Example I-50] | 100% | 100% | 100% | 100% | 100% | 100% | 80 to 100% | 80 to 100% | 90% | 80 to 100% | 80 to 100%
2 | Cc1nc([C@H](C)NC(=O)c2cc(C(F)(F)F)cc(C(F)(F)F)c2)n(-c2ccc(C(=O)N3C[C@@H](C)O[C@@H](C)C3)cn2)n1 [Example I-45] | 100% | 100% | 100% | 100% | 100% | 100% | 80 to 100% | 80 to 100% | 100% |  | 80 to 100%
3 | C[C@@H]1CN(C(=O)c2ccc(-n3ncnc3[C@H](C)NC(=O)c3cc(Cl)cc(C(F)(F)F)c3)nc2)C[C@H](C)O1 [Example I-31] | 90% | 100% | 100% | 100% | 100% | 100% |  | 80 to 100% | 100% | 80 to 100% | 80 to 100%
